SMILES strings stand for the structures.

This assay has as its target human A2A receptor (A2AR) (Homo sapiens, UniProt P29274). The assay can be described thus: Luciferase reporter assay (HEK293-A2AR-luc2p/CRE/Hygro cells, 3 nM CGS21680). It is filed as cell-based. Particulars: 3 nM CGS21680, 5 h incubation. The method, then:
HEK293 cells were maintained in Dulbecco's modified Eagle's medium (DMEM, Gibco) supplemented with 10% fetal bovine serum (FBS, Thermo Scientific), 100 units/mL penicillin (Gibco), and 0.1 mg/mL streptomycin (Gibco) in a humidified 37° C. environment with 5% C02. Plasmid encoding wild-type human A2A receptor (A2AR) (in pcDNA3.1) was synthesized by Genscript (Nanjing, China). Transfection of the plasmids was performed in 6-well plates with 4×10^5 cells using Lipofectamin 2000 (ThermoFisher Scientific) according to the instruction of the manufacturer. Cell clones that stably express A2AR were established and maintained in the same complete medium as the HEK293 cells in addition of G-418 (Gibico). Expression level of A2AR in each single cell clone was determined using immunoblotting and FACS method. HEK293-A2AR stable cells were then transfected with pGL4.29[luc2P/CRE/Hygro] (Promega) luciferase reporter plasmid for establishing the HEK293-A2AR-luc2p/CRE/Hygro stable cell line.
HEK293-A2AR-luc2p/CRE/Hygro cells were seeded at a density of 5,000 cells/well in DMEM with 1% FBS and 1 U/mL adenosine deaminase (ADA) (Sigma). After 18 h, the cells were treated with 3 nM CGS21680 plus a series dilution of A2AR antagonist, the compounds disclosed herein at the concentration of 0.1˜10000 nM, prepared in DMEM with 1% FBS. After 5 h incubation, the luciferase activity in cells were measured using the Bright-Glo Luciferase Assay System (Promega) according to manufacturer's instructions. The luminescence signal was measured using a PHERAstar FS plate reader (BMG Labtech). […] Maximal luminescence intensity was determined in the presence of 3 nM CGS21680 and was set as 100%. The IC50 value was calculated from a dose dependent inhibition curve across the range of compound concentrations.

human A2A receptor (A2AR), sequence (P29274 whole entry): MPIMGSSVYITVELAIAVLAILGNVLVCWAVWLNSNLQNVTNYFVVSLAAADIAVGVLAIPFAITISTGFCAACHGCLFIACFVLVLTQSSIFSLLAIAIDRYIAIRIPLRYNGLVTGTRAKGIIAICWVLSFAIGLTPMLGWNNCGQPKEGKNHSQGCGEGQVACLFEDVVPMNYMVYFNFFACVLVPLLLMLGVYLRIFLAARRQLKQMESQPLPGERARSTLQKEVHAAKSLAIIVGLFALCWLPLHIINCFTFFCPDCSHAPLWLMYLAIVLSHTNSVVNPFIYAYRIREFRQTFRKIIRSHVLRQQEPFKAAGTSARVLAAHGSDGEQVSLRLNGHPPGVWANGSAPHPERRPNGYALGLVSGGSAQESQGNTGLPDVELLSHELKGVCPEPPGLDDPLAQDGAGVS

In turn, `COCCOc1ccc(N2CCN(C(=O)C(c3ccccc3)n3ncc4c3nc(N)n3nc(-c5ccco5)nc43)CC2)cc1` (centres unmarked) [Compound A13, 2-(5-amino-2-(furan-2-yl)-7H-pyrazolo[4,3-e][1,2,4]triazolo[1,5-c]pyrimidin-7-yl)-1-(4-(4-(2-methoxyethoxy)phenyl)piperazin-1-yl)-2-phenylethan-1-one] displayed a half-inhibitory concentration (IC50) of 2.9 nM.
As for `COCCOc1ccc(N2CCN(C(=O)C(c3ccccc3)n3ncc4c3nc(N)n3nc(-c5ccco5)nc43)CC2C)cc1` (single isomer, unassigned) [Compound A47a], the IC50 came to 17.3 nM.
To `COCCOc1ccc(N2CCN(C(=O)C(C)(c3ccccc3)n3cc4c(nc(N)n5nc(-c6ccco6)nc45)n3)CC2)cc1` (centres unmarked) [Compound C25, 2-(5-amino-2-(furan-2-yl)-8H-pyrazolo[4,3-e][1,2,4]triazolo[1,5-c]pyrimidin-8-yl)-1-(4-(4-(2-methoxyethoxy)phenyl)piperazin-1-yl)-2-phenylpropan-1-one] belongs 21.7 nM; to `CC(O)COc1ccc(N2CCN(C(=O)C(c3ccccc3)n3ncc4c3nc(N)n3nc(-c5ccco5)nc43)CC2)cc1` (centres unmarked) [Compound A62, 2-(5-amino-2-(furan-2-yl)-7H-pyrazolo[4,3-e][1,2,4]triazolo[1,5-c]pyrimidin-7-yl)-1-(4-(4-(2-hydroxypropoxy)phenyl)piperazin-1-yl)-2-phenylethan-1-one], 1.3 nM.
To `COCCOc1ccc(N2CCN(C(=O)[C@@](C)(c3ccccc3)n3ncc4c3nc(N)n3nc(-c5ccco5)nc43)CC2)c(F)c1` [Compound A64b, (R)-2-(5-amino-2-(furan-2-yl)-7H-pyrazolo[4,3-e][1,2,4]triazolo[1,5-c]pyrimidin-7-yl)-1-(4-(2-fluoro-4-(2-methoxyethoxy)phenyl)piperazin-1-yl)-2-phenylpropan-1-one] belongs 2.2 nM; to `COCCOc1ccc(N2CCN(C(=O)C(c3ccccc3OC)n3ncc4c3nc(N)n3nc(-c5ccco5)nc43)CC2)cc1` (single isomer, unassigned) [Compound A31b], 0.1 nM.
The value for `CC(C(=O)N1CCC1)(c1ccccc1)n1ncc2c1nc(N)n1nc(-c3ccco3)nc21` (centres unmarked) [Compound B24, 2-(5-amino-2-(furan-2-yl)-7H-pyrazolo[4,3-e][1,2,4]triazolo[1,5-c]pyrimidin-7-yl)-1-(azetidin-1-yl)-2-phenylpropan-1-one] was 12 nM.
For `Nc1nc2c(cnn2C(C(=O)N2CCc3ccc(F)cc3C2)c2ccccc2)c2nc(-c3ccco3)nn12` (centres unmarked) [Compound B11, 2-(5-amino-2-(furan-2-yl)-7H-pyrazolo[4,3-e][1,2,4]triazolo[1,5-c]pyrimidin-7-yl)-1-(7-fluoro-3,4-dihydroisoquinolin-2(1H)-yl)-2-phenylethan-1-one], the IC50 turned out to be 2.2 nM.
Take `Nc1nc2c(cnn2C(C(=O)N2CCc3cc(F)ccc3C2)c2ccccc2)c2nc(-c3ccco3)nn12` (single isomer, unassigned) [Compound B7a]: the midpoint of inhibition, the IC50, lay at 29.1 nM.
Take `CN1CCN(CCCOc2ccc(N3CCN(C(=O)C(C)(c4ccccc4)n4ncc5c4nc(N)n4nc(-c6ccco6)nc54)CC3)cc2)CC1` (centres unmarked) [Compound A82, 2-(5-amino-2-(furan-2-yl)-7H-pyrazolo[4,3-e][1,2,4]triazolo[1,5-c]pyrimidin-7-yl)-1-(4-(4-(3-(4-methylpiperazin-1-yl)propoxy)phenyl)piperazin-1-yl)-2-phenylpropan-1-one]: the IC50 was determined as 7.1 nM.
As for `COCCOc1ccc(N2CCN(C(=O)C(c3ccccc3)n3cc4c(nc(N)n5nc(-c6ccco6)nc45)n3)CC2)cc1` (centres unmarked) [Compound C14, 2-(5-amino-2-(furan-2-yl)-8H-pyrazolo[4,3-e][1,2,4]triazolo[1,5-c]pyrimidin-8-yl)-1-(4-(4-(2-methoxyethoxy)phenyl)piperazin-1-yl)-2-phenylethan-1-one], the IC50 was found to be 9.5 nM.
`Nc1nc2c(cnn2C(C(=O)N2CCCCC2)c2ccccc2)c2nc(-c3ccco3)nn12` (centres unmarked) [Compound B2, 2-(5-amino-2-(furan-2-yl)-7H-pyrazolo[4,3-e][1,2,4]triazolo[1,5-c]pyrimidin-7-yl)-2-phenyl-1-(piperidin-1-yl)ethan-1-one] showed an IC50 of 2.9 nM.
`COCCOc1ccc(N2CCN(C(=O)C(C)(c3ccccc3)n3ncc4c3nc(N)n3nc(-c5ccco5)nc43)CC2)cc1F` (centres unmarked) [Compound A66, 2-(5-amino-2-(furan-2-yl)-7H-pyrazolo[4,3-e][1,2,4]triazolo[1,5-c]pyrimidin-7-yl)-1-(4-(3-fluoro-4-(2-methoxyethoxy)phenyl)piperazin-1-yl)-2-phenylpropan-1-one] had an IC50 of 6.5 nM. This IC50 is about 2.2-fold higher than that of the compound before.
To `COCCOc1ccc(N2CCN(C(=O)C(C3CC3)n3cc4c(nc(N)n5nc(-c6ccco6)nc45)n3)CC2)cc1` (single isomer, unassigned) [Compound C16b] belongs 168 nM; to `COCCOc1ccc(N2CCN(C(=O)C(C)n3cc4c(nc(N)n5nc(-c6ccco6)nc45)n3)CC2)cc1` (centres unmarked) [Compound C1, 2-(5-amino-2-(furan-2-yl)-8H-pyrazolo[4,3-e][1,2,4]triazolo[1,5-c]pyrimidin-8-yl)-1-(4-(4-(2-methoxyethoxy)phenyl)piperazin-1-yl)propan-1-one], 28.4 nM; to `CCCC(C(=O)N1CCN(c2ccc(OCCOCCOC)cc2)CC1)n1cc2c(nc(N)n3nc(-c4ccco4)nc23)n1` (centres unmarked) [Compound C7, 2-(5-amino-2-(furan-2-yl)-8H-pyrazolo[4,3-e][1,2,4]triazolo[1,5-c]pyrimidin-8-yl)-1-(4-(4-(2-(2-methoxyethoxy)ethoxy)phenyl)piperazin-1-yl)pentan-1-one], 186 nM.
The value for `CCCC(C(=O)N1CCN(c2c(F)cc(OCCOC)cc2F)CC1)n1ncc2c1nc(N)n1nc(-c3ccco3)nc21` (centres unmarked) [Compound A25, 2-(5-amino-2-(furan-2-yl)-7H-pyrazolo[4,3-e][1,2,4]triazolo[1,5-c]pyrimidin-7-yl)-1-(4-(2,6-difluoro-4-(2-methoxyethoxy)phenyl)piperazin-1-yl)pentan-1-one] was 4.5 nM.
The value for `CO[C@@H]1CCCN(C(=O)C(C)(c2ccccc2)n2ncc3c2nc(N)n2nc(-c4ccco4)nc32)C1` (stereo partly drawn) [Compound B31, 2-(5-amino-2-(furan-2-yl)-7H-pyrazolo[4,3-e][1,2,4]triazolo[1,5-c]pyrimidin-7-yl)-1-((R)-3-methoxypiperidin-1-yl)-2-phenylpropan-1-one] was 46 nM.
Turning to `COCCOCCOc1ccc(N2CCN(C(=O)C(C(C)C)n3ncc4c3nc(N)n3nc(-c5ccco5)nc43)CC2)cc1` (centres unmarked) [Compound A12, 2-(5-amino-2-(furan-2-yl)-7H-pyrazolo[4,3-e][1,2,4]triazolo[1,5-c]pyrimidin-7-yl)-1-(4-(4-(2-(2-methoxyethoxy)ethoxy)phenyl)piperazin-1-yl)-3-methylbutan-1-one], the midpoint of inhibition, the IC50, lay at 113 nM.
Turning to `CC(C(=O)N1CCC2(CC1)COC2)(c1ccccc1)n1ncc2c1nc(N)n1nc(-c3ccco3)nc21` (centres unmarked) [Compound B34], half-maximal inhibition (IC50) required 14 nM. This IC50 is about 8.1-fold lower than that of the compound before.
On to `COCCOCCOc1ccc(N2CCN(C(=O)C(CC(C)C)n3ncc4c3nc(N)n3nc(-c5ccco5)nc43)CC2)cc1` (single isomer, unassigned) [Compound A17b], for which the IC50 amounted to 160 nM.
The value for `Cc1ccc2c(c1)CN(C(=O)C(c1ccccc1)n1ncc3c1nc(N)n1nc(-c4ccco4)nc31)CC2` (centres unmarked) [Compound B17, 2-(5-amino-2-(furan-2-yl)-7H-pyrazolo[4,3-e][1,2,4]triazolo[1,5-c]pyrimidin-7-yl)-1-(7-methyl-3,4-dihydroisoquinolin-2(1H)-yl)-2-phenylethan-1-one] was 1.3 nM; that for `CCCC(C(=O)N1CCN(c2ccc(OCCOC)cc2F)CC1)n1ncc2c1nc(N)n1nc(-c3ccco3)nc21` (centres unmarked) [Compound A24, 2-(5-amino-2-(furan-2-yl)-7H-pyrazolo[4,3-e][1,2,4]triazolo[1,5-c]pyrimidin-7-yl)-1-(4-(2-fluoro-4-(2-methoxyethoxy)phenyl)piperazin-1-yl)pentan-1-one] was 4.4 nM; that for `COCCOCCOc1ccc(N2CCN(C(=O)C(CC(C)C)n3ncc4c3nc(N)n3nc(-c5ccco5)nc43)CC2)cc1` (single isomer, unassigned) [Compound A17a] was 0.9 nM.
The value for `COCCOc1ccc(N2CCN(C(=O)C(C)(c3ccccc3)n3cc4c(nc(N)n5nc(-c6ccco6)nc45)n3)CC2)cc1` (single isomer, unassigned) [Compound C25b] was 21.2 nM; that for `CCCC(C(=O)N1CCN(c2ccc(OCCOC)cc2)CC1)n1ncc2c1nc(N)n1nc(-c3ccco3)nc21` (centres unmarked) [Compound A5, 2-(5-amino-2-(furan-2-yl)-7H-pyrazolo[4,3-e][1,2,4]triazolo[1,5-c]pyrimidin-7-yl)-1-(4-(4-(2-methoxyethoxy)phenyl)piperazin-1-yl)pentan-1-one] was 9.1 nM.
